Molecules are shown by their SMILES.

Usually melting point stands for the temperature of the solid-liquid transition.

Consider `COc1cc2c(c(OC(C)=O)c1)C1CCC3(C)C(=O)CCC3C1CC2` (configuration not stated), for which the melting point is 144 to 145 °C.
The same measure for `CC1=C(/C=C/C(=O)N2CCN(C(N)=O)CC2)C(C)(C)CCC1`: 144 °C.
In the case of `O=C(O)c1cc(C(=O)O)c(C(O)=NCc2ccc(C(F)(F)F)cc2)cc1C(O)=NCc1ccc(C(F)(F)F)cc1` it was 263 to 264 °C.
The same measure for `O=C(O)CC[C@H](NC(=O)Nc1ccc(N(CCCl)CCCl)cc1)C(=O)O`: 116 to 118 °C; for `CCCCO[PH](=O)Cc1cc(C(C)(C)C)c(O)c(C(C)(C)C)c1` (configuration not stated): 85 to 87 °C.
`CCCCn1ccc(-c2ccc3c(c2)OCCN3[C@H]2CC[C@H](O)CC2)c(Cl)c1=O` gave a melting point of 178 °C.
The same measure for `CNC(=NCCSSCc1nc[nH]c1C)NC#N`: 137 to 142 °C; for `CCCCCCCCCCCCC#CC#CCn1c2ccccc2c2ccccc21`: 53 to 58 °C; for `Cc1ccc(C)n1-c1ccc(C(C)C#N)cc1` (configuration not stated): 79 to 80 °C.
The same measure for `Cc1oc(-c2ccccc2)nc1CCOc1ccc(C[C@H](Nc2ccccc2C(=O)c2ccccc2)C(=O)O)cc1`: 85 to 90 °C; for `CN(C(=O)Nc1nc(OCC(F)(F)F)cc(OCC(F)(F)F)c1F)c1ccc(Br)cc1`: 89 to 90 °C; for `N=C(N)Nc1nc(CSCCNc2c(NCc3ccncc3)c(=O)c2=O)cs1`: 172 to 175 °C.
The same measure for `C=C1CC2C(CCC3(C)C2C=CC3(C)O)C2(C)CCC(=O)C=C12` (configuration not stated): 162 °C; for `Cc1ccc(S(=O)(=O)N2CCCC2c2cccnc2)cc1` (racemic): 112 °C.
Compound `Cc1csc2nc3c(c(NC(=O)CN4C(=O)NC(=O)[C@@H]4C)c12)CCCC3` yielded a melting point of 273 to 277 °C.
For `OCC1OC(n2cc(Cc3ccc(C4CC4)cc3)c3c(F)cccc32)C(O)C(O)C1O` (configuration not stated), the melting point was in the range of 110 to 112 °C.
In the case of `Oc1cc(-c2ccc(Cl)cc2F)n[nH]1` it was 194 °C; in that of `C[C@H]1[C@@H](C(C)(C)O)CCN1c1ccc(C#N)c2sccc12`, 146 to 147 °C.
Compound `CC(C)(C)OC(=O)[C@@H]1CCC(=O)N1Cc1ccccc1` registered a melting point of 59 to 63 °C.
In the case of `CCCNC(=O)C(=O)CCC(=O)O` it was 79 to 81 °C.
On to `c1ccc2c(c1)NC1CCCc3onc-2c31` (configuration not stated), for which the melting point lay in the range of 152 to 154 °C.
In the case of `CC(=O)Oc1cccc(C2(N(C)C)CCC(=O)CC2)c1` it was 51 to 53 °C.
Turning to `COc1cc(OC)c2c(=O)[nH]c(-c3ccc4[nH]c(CCN5CCCC5)cc4c3)nc2c1`, the melting point is 215 to 217 °C.
The same measure for `CC(C)(C)C(=O)Nc1c(SC(F)(F)F)c(C#N)nn1-c1c(Cl)cc(C(F)(F)F)cc1Cl`: 172 to 174 °C; for `COc1ccc(-c2c(C(=O)O)c(=O)n(C)c3ccc(Cl)cc23)cc1OC`: 230 to 232 °C; for `CCCSC1=NSc2cc(C)cnc2N1Cc1ccc(-c2ccccc2C#N)cc1`: 190 to 192 °C.
In the case of `O=C(Nc1cccc(F)c1)Nc1ccnc(C(F)(F)F)c1` it was 165 to 167 °C; in that of `N#Cc1ccc([C@H]2CC[C@H](C=C(F)F)CC2)cc1`, 59.3 °C; in that of `CC(C)(Cc1ccc2oc(-c3nc(C(C)(C)C)cs3)cc2c1)C(=O)O`, 155 to 157 °C.
On to `COc1cc2c(cc1C(F)(F)F)N(C(=O)Nc1cncc(-c3c(F)cccc3F)c1)CC2`, for which the melting point fell in the range of 217 to 219 °C.
Compound `N=C(N)NCCC[C@H](NC(=O)c1ccccc1SSc1ccccc1C(=O)N[C@@H](CCCNC(=N)N)C(=O)O)C(=O)O` had a melting point of 208 to 211 °C.
The same measure for `CCCc1cccc(C2CCCC2)c1`: 90 °C; for `CC(=O)C1CCC2C3CCC4CC(O)C(O[N+](=O)[O-])CC4(C)C3C(=O)CC12C` (configuration not stated): 170 to 176 °C; for `O=C(Nc1cc(-c2ccccc2)on1)Nc1cccc2c1C1CCCCN1C2=O` (configuration not stated): 248 °C.
Turning to `O=[N+]([O-])C(Sc1ccc(Cl)cc1)=C1NCCN1Cc1ccc(Cl)nc1`, the melting point was in the range of 159 to 161 °C.
In turn, `COc1ccc(C=C2CS(=O)(=O)CC(=Cc3ccc(OC)cc3)C2(O)NC2=NCCS2)cc1` (configuration not stated) displayed a melting point of 194 to 196 °C.
`Fc1cccc(COc2ccc(Nc3ncnc4cc(C#Cc5ccccn5)sc34)cc2Cl)c1` showed a melting point of 242 °C.
Regarding `CCOC(=O)CSc1nc(Cl)cc(Nc2ccc(Cl)cc2)n1`, the melting point lay in the range of 109 to 112 °C.
In the case of `O=C1COc2cc3c(cc21)C1(CO3)C(=O)N(CC2CCCO2)c2ccccc21` (configuration not stated) it was 142 to 144 °C.
In the case of `CN(C(=O)C(F)(F)F)c1ccc(C2=NC[C@@H](OC(=O)Nc3ccccc3)[C@H](c3ccccc3)O2)cc1` (racemic) it was 160 °C; in that of `Cn1cc(-c2cc3cccnc3[nH]2)c2cc(CCC(=O)O)ccc21`, 268 to 270 °C.
The same measure for `Cc1cc(C)n(C(=N)NC(=S)Nc2cccnc2)n1`: 132 °C; for `O=C1N=CC(OCC2CCC2)(C(F)(F)F)c2cc(F)ccc2N1` (configuration not stated): 190 to 191 °C.
In turn, `Cc1csc(C)c1NC(=O)CO` gave a melting point of 85 to 87 °C.
In the case of `O=C(O)CCCCCc1c([N+](=O)[O-])cc(O)c(O)c1[N+](=O)[O-]` it was 120 to 127 °C; in that of `CCCCC1(CCCC)c2cc(Br)ccc2-c2ccc(Br)cc21`, 117 to 118 °C; in that of `O=C1CC[C@@H](c2ccccc2)[C@H](c2ccccc2)N1` (relative stereo), 160 to 164 °C.
The compound `CN1CCCCCCC1=NC(=S)Nc1ccccc1` registered a melting point of 123 to 125 °C.
The same measure for `O=c1c(Cl)cc2nc3ccc(F)cc3sc-2c1Cl`: 256 to 258 °C.
In turn, `O=C(O)c1ccccc1C(=O)OC1CCN(c2cc(-c3ccccc3)nc(-c3ccccc3)n2)CC1` came in with a melting point of 96 to 98 °C.
In the case of `CN(C)C(=O)Nc1snc(N(C)C)c1C#N` it was 203 to 204 °C; in that of `COC(=O)c1ccc(C(F)(F)F)cc1N(S(C)(=O)=O)S(C)(=O)=O`, 221 to 225 °C; in that of `COc1cc(-c2ccc(O)c(C3(C)CCCCC3)c2)cc(CC2SC(N3CCOCC3)=NC2=O)c1OC` (configuration not stated), 210 to 213 °C.
The same measure for `CC=CCn1c(CC)c(C)c2cnnc(OCc3ccc(F)cc3)c21`: 74 to 76 °C.
In the case of `O=C(Nc1c([N+](=O)[O-])cc(C(F)(F)F)cc1[N+](=O)[O-])C(F)(F)F` it was 222 to 224 °C; in that of `CNC(=O)n1nc(Oc2ccc(C(F)(F)F)cc2[N+](=O)[O-])c(C)c1C`, 117 to 119 °C; in that of `O=C1COCC(=O)NCCOCCOCCN1`, 147 to 148 °C.
`COC(=O)c1c(C(C)C)nc2c(c1-c1ccc(F)cc1)CCC(=O)N2` displayed a melting point of 191 °C.
The same measure for `COc1ccc2c(c1)Sc1c(cc(OC)c(OC(C)=O)c1Br)N2C(=O)OC(C)OC(C)=O` (configuration not stated): 134 to 135 °C; for `Clc1ccc(Sc2ccc(-c3ccccc3)s2)cc1`: 85 to 87 °C.
For the compound `CCOc1ccnc2[nH]ccc12`, the melting point lay in the range of 176 to 178 °C.
Turning to `CCCCC(=O)NC(=O)C(c1ccccc1)c1ccccc1`, the melting point amounted to 83 °C.
On to `CN(Cc1ccc([N+](=O)[O-])cc1)C1CCN(c2ccc([N+](=O)[O-])cc2)CC1`, for which the melting point lay in the range of 119 to 120 °C.
`Cc1cc(-c2nc3cccnn3c2-c2ccnc(NC(=O)Nc3ccsc3)c2)ccc1F` came in with a melting point of 234 to 235 °C.
The same measure for `CN(Cc1ccccc1)C(=N)N[N+](=O)[O-]`: 103 to 107 °C; for `CN(C)C(=O)C(C)(C)c1cn2nc(Cl)ccc2n1`: 149 to 151 °C; for `Cn1nc(-c2cc([N+](=O)[O-])c(O)cc2F)c(Cl)c1C(F)(F)F`: 89 to 90 °C.
As to `CN(C)c1ccc2c(c1)c(=O)[nH]c(=O)n2CCCCN1CCC(OC(c2ccccc2)c2ccccc2)CC1`, the melting point lay within 165 to 167 °C.
In the case of `COC(=O)C1=C(C)NC(C)=C(C(=O)OCCN2CCN(C(c3ccc(OC)cc3)c3ccc(OC)cc3)CC2)C1c1cccc([N+](=O)[O-])c1` (configuration not stated) it was 76 to 80 °C; in that of `COc1ccc(C2=NN(Cc3ccccc3C(F)(F)F)C(=O)[C@H]3CCCC[C@@H]23)cc1OC` (relative stereo), 87 to 88 °C.
The same measure for `COc1cc2c(cc1OC)CN(CCCCNC(=O)c1cc(Br)cc(OC)c1OCCF)CC2`: 127 to 129 °C.
The same measure for `COc1cc(OCCOc2ccc3ccccc3c2)cc(OC)c1C(C)=O`: 97 to 98 °C; for `OCCCCC(F)(F)C(F)(F)CCO`: 52 to 55 °C.
In turn, `CCCCN(CCCC)CCNC(=O)c1cccc(NC(=O)N2CCc3cc(SC)c(C(F)(F)F)cc32)c1` yielded a melting point of 128 to 130 °C.
`CCOC(=O)[C@@](C)(C#N)[C@@H](c1ccccc1OC)c1cccc2ccccc12` returned a melting point of 134 to 136 °C.
The same measure for `O=C(Nc1ncccn1)c1c(Cl)ccc2c1OCCO2`: 223 °C.
In the case of `CC(C)COc1ccc(-c2nc3cccc(O)c3s2)cc1C#N` it was 200 to 202 °C.
`CC(=O)Nc1cc(N)c(F)cc1Cl` displayed a melting point of 176 to 178 °C.
In the case of `Nc1nc2ccccc2c2c1ncn2CCCCNC(=O)Oc1cccc2ccccc12` it was 89 to 92 °C; in that of `CC(=O)Oc1ccc(-c2ccc3cc(C(=O)O)ccc3c2)cc1`, 256 to 258 °C.
In the case of `O=c1[nH]ncc2[nH]c(-c3ccc(OC(F)F)c(OC4CC4)c3)c(COC3CCC3)c12` it was 95 to 100 °C; in that of `Cc1sc(-c2ccccc2)nc1COc1ccc(COc2ncccc2CC#N)cc1`, 161 to 162 °C.
`O=C(Nc1cccc2c(CO)ccnc12)c1c(Cl)cccc1Cl` yielded a melting point of 235 to 239 °C.
In the case of `CCOC(=O)[C@H](Cc1cccc(OCc2ccc3ccccc3c2)c1)NC(=O)C(F)(F)F` it was 103 to 111 °C; in that of `Cc1ccc2c(c1)C(C)(C)[C@@H](C)[C@H](C)C2(C)C` (relative stereo), 65 to 66 °C.
In turn, `Cc1ccc2oc(-c3ccccc3)nc2n1` registered a melting point of 148 to 149 °C.
The same measure for `Cc1cc(I)ccc1Nc1c(-c2nnco2)ccc(F)c1F`: 144 to 146 °C.

(Values after a melting point compilation (Tetko et al.; mined from patent text by program, amines drawn as free bases though some values may be those of a salt).)
